Columns and labels:
Assay type in all cases: cell-based, human
[1] = tested on: Nef-ER cells (SupT1) migration towards S1P gradient; assay: Migration assay through collagen I-coated transwell chambers towards S1P; details: pretreatment with PAK2 inhibitor (5 μM); 4HT-activated Nef-ER cells; 100 nM S1P, 4 hours, 37° C.; FIG. 1B
Description: Migration assay. 4-Hydroxy tamoxifen (4HT) activated SupT1 control and Nef-ER cells were labeled with 2.5 uM Calcein-AM, washed using centrifugation and resuspended in phenol red free RPMI containing 0.1% fatty acid free BSA. These cells were loaded on the top chamber of collagen I-coated 4 micron transwell chambers as previously described (see, e.g., Iino J. et al. Platelet-derived sphingosine 1-phosphate induces migration of Jurkat T cells. LIPIDS HEALTH DIS 2014, 13:150). Briefly, cells were allowed to transmigrate,
This downregulation can lead to reduced chemotactic migration towards S1P as evidenced from experiments when 4 HT activated. SupT1I control and Nef-ER cells were tested for migration through collagen I-coated transwell chambers towards S1P gradients as previously described for Jurkat T cells (Iino J. et al. 2015).

[2] = tested on: S1P1 surface expression in SupT1 cells stably expressing tamoxifen-inducible HIV-1SF2-Nef-estrogen receptor construct (Nef-ER); assay: S1P1 cell surface staining (fluorescence cytometry), tamoxifen-activated Nef-ER cells; details: 5 μM FRAX597, Nef activated with tamoxifen (1 μM) 16 hours, FIG. 1A/1D
Description: (§1) S1P1 cell surface staining. For assessing Nef-dependent S1P1 regulations, stably transfected T cells (SupT) resulting in estrogen inducible Nef expression (Nef-ER) were used (see Lee J. H. et al. HIV Activates the Tyrosine Kinase Hck to Secrete ADAM Protease-Containing Extracellular Vesicles. EBIOMEDICINE 2018, 28:151-161). Upon treatment with tamoxifen (1 μM; established using CD4 downregulation) for 16 hours, fluorescence cytometry analysis was performed with an anti-S1P1 monoclonal antibody coupled to eFluor 660 (SW4GYPP, EBIOSCIENCE™).
(§2) HIV-Nef Leads to S1P1 Downregulation and Impaired Migration of T cells to S1P1 Gradients. The effect of Nef on regulation of S1P1 surface expression was examined using a recombinant human T cell line (SupT1), which stably expresses a tamoxifen inducible Nef (Nef-ER). Upon treatment with tamoxifen (1 μM) for 16 hours (as established for CD4 downregulation—see e.g., Walk S. F. et al., Design and use of an inducibly activated human immunodeficiency virus type 1 Nef to study immune modulation. J VIROL 2001; 75 (2):834-843), fluorescence cytometry analysis was performed with an anti-S1P1 monoclonal antibody coupled to eFluor 660 (SW4GYPP, EBIOSCIENCE™). […] To determine whether there was a specific pathway involved in HIV-Nef dependent S1P1, downregulation, PAK2 signaling was tested. […]

[3] = tested on: S1P1 surface expression in SupT1 wildtype (SupT1) cells; assay: S1P1 cell surface staining (fluorescence cytometry), mock transfected / control SupT1 cells; details: PAK2 inhibition (5 μM FRAX597) in mock transfected cells
Description: as §1, §2

**Q.** For `CCn1c(=O)c(-c2ccc(-c3cncs3)cc2Cl)cc2cnc(Nc3ccc(N4CCN(C)CC4)cc3)nc21` [FRAX597], which “Migration to bottom chamber containing S1P” value [1] is on record?
**A.** Its value is “not only restored the effect of NEF-ER but also showed significant increase in migration”.

**Q.** And the S1P1 surface expression [2]?
**A.** The S1P1 surface expression was “not only restored S1P1 surface expression, but also increased S1P1 surface expression”.

**Q.** What about the S1P1 surface expression ([2]; listed as FRAX 597) of the same compound?
**A.** The S1P1 surface expression was “restored S1P1 surface expression”.

**Q.** And the S1P1 surface expression [3]?
**A.** Its S1P1 surface expression is “downregulation of S1P1”.

**Q.** What about the S1P1 surface expression ([3]; listed as PAK2 inhibitor) of the same compound?
**A.** Its S1P1 surface expression is “downregulation of S1P”.

— US20220079948A1, “COMPOSITIONS AND METHODS FOR SUPPRESSING AND/OR TREATING HIV-INFECTION AND/OR A RELATED CLINICAL CONDITION THEREOF” (Indiana University Research And Technology Corporation, priority 2018, published 2022)
